Source: patent US5574070A, “Substituted guanidines having high binding to the sigma receptor and the use thereof” (priority 1993, dated 1996)
“Also recorded” adds a separate entry of the source. Like-named read-outs stand apart in the source and are kept apart here.

Key:
sigma receptor [1] = target: sigma receptor (Cavia porcellus, UniProt Q60492); assay: biochemical
[2] = target: T1, sigma receptor from guinea pig brain (Cavia porcellus, UniProt Q60492); assay: [3H]AZ-DTG binding and photoaffinity labeling of the sigma receptor
T1 construct: from tissue; host or cells: guinea pig brain membranes
T1 sequence (Q60492 whole entry): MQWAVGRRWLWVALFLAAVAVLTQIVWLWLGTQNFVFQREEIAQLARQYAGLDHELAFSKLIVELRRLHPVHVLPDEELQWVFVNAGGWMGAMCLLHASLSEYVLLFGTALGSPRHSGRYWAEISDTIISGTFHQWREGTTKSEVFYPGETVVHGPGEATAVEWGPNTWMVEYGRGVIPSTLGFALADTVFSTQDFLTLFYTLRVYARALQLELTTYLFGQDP
Experimental: (§1) The filters were then irradiated with long-wavelength UV light for a 15 minute period. Filter-bound proteins were solubilized with 50 mM Tris pH 7.4, 0.1% sodium dodecyl sulfate. Solubilized proteins were subjected to SDS-polyacrylamide gel electrophoresis.

[3] = test system: mu, delta and kappa receptors; settings: cited from earlier work
sigma receptor [4] = assay: [3H]DTG displacement radioligand binding assay, guinea pig brain membranes
sigma receptor [5] = assay: (+)[3H]3-PPP saturation binding, guinea pig brain membranes
Experimental: For radioreceptor assays aliquots of the frozen membrane suspension were thawed and diluted tenfold with 50 nM Tris/HCl buffer, pH 7.4. […] The protein concentration in the 1 ml final incubation volume was 800 ug, corresponding to 32 mg of brain tissue (original wet weight). […] After incubation for 90 minutes at room temperature the membrane suspension was rapidly filtered under vacuum through Whatman GF/B glass fiber filters using a Brandel 48 well cell harvester (Brandel, Gaithersburg, Md.). […] The filters were dissolved in 10 ml each of Cytoscint (Westchem Products, San Diego, Calif.) and radioactivity was measured by liquid scintillation spectrometry at a counting efficiency of 35-50%.

anxiety behavior of mice [6] = assay: black:white test box (light/dark exploration) of mice
[7] = test system: social interaction of rats; assay: rat social interaction test; type: in vivo, rat (male Hooded Lister); settings: for time spent in social interaction: i.p., 10 min session, n=6, P<0.001
Excerpt: A second preferred animal model is the rat social interaction test described by Jones, B. J. et al., supra, wherein the time that two mice spend in social interaction is quantified. […] Both the familiarity and the light level of the test arena may be manipulated. Undrugged rats show the highest level of social interaction when the test arena is familiar and is lit by low light. Social interaction declines if the arena is unfamiliar to the rats or is lit by bright light. Anxiolytic agents prevent this decline. The overall level of motor activity may also be measured to allow detection of drug effects specific to social behaviors.
Male Hooded Lister rats (Glaxo bred, 200-250 g), were housed 5 to a cage and were kept in the laboratory environment for at least a week before testing. Rats paired in the test were taken from separate cages.
The test arena consisted of an open-topped box, 62×62×33 cm with a 7×7 matrix of infra-red photocell beams in the walls, 2.5 cm from the floor.
Testing involved placing each member of a pair of rats in opposite comers of the arena and then leaving them undisturbed for 10 min. while recording their behavior remotely on videotape. The behavioral assessments were made subsequently from the recordings. The time spent in social interaction was measured and expressed as a cumulative total for the 10 min session. The behaviors that comprised social interaction were: following with contact, sniffing (but not sniffing of the hindquarters), crawling over and under, tumbling, boxing and grooming.

[8] = test system: D1 subclass of dopamine receptors; settings: cited from earlier work
sigma receptor [9] = settings: cited from earlier work
rats = settings: rat, in vivo; cited from earlier work
[10] = test system: dopamine-stimulated cAMP production; settings: in vitro; cited from earlier work
[11] = test system: D2 class of striatal dopamine receptors; settings: cited from earlier work
[12] = test system: adrenergic, muscarinic, cholinergic, or histaminergic sites; settings: cited from earlier work
rhesus monkeys = settings: introduction of foreign objects into cages; cited from earlier work
[13] = test system: rats trained to discriminate cyclazocine; settings: same concentrations; Holtzman, private communication; cited from earlier work
PCP receptor = settings: Tam, personal communication; cited from earlier work
[14] = target: sigma receptor from guinea pig brain; assay: [3H]AZ-DTG binding and photoaffinity labeling of the sigma receptor; settings: in the dark; brain membranes
Experimental: as §1

[15] = test system: sigma site in brain sections; assay: receptor autoradiography of [3H]DTG binding, brain sections; design: species or system guinea pig and rat; settings: 2 nM [3H]DTG
Experimental: Male Sprague Dawley rats (200-250 g) and NIH guinea pigs (300-350 g) were sacrificed, their brains rapidly removed and processed for receptor autoradiography according to the method of Herkenham et al. J. Neuroscience 2:1129-1149 (1982).
Incubations were terminated by 4×2 minute washes in […] Tris-HCl (pH 7.4, 4° C.) with 1 mg/ml BSA, rapidly dried under a stream of cool air and placed in x-ray cassettes with ^3 H-sensitive film (^3 H-ultrofilm, LKB). Films were developed 6-8 weeks later (D-19, Kodak).

sigma receptor [16] = assay: [3H]DTG saturation binding / binding characteristics, guinea pig brain membranes; settings: for binding to sigma receptor sites (words): guinea pig brain membrane homogenates and slide-mounted rat and guinea pig brain sections
Experimental: Values obtained were the mean of quadruplicate determinations.
Frozen guinea pig brains (Pel-Freeze, Rogers, Ariz.) were homogenized in 10 volumes (w/v) of 0.32M sucrose using a Polytron homogenizer. The homogenate was spun at 900×g for 10 minutes at 4° C. The supernatant was collected, and spun at 22,000×g for 20 minutes at 4° C. The pellet was resuspended in 10 volumes of 50 mM Tris/HCl buffer, pH 7.4, incubated at 37° C. for 30 minutes and spun again at 22,000×g for 20 minutes at 4° C. The pellet was then resuspended in 10 volumes of 50 mM Tris/HCl buffer, pH 7.4 and 10 ml aliquots of this membrane suspension were stored frozen at -70° C. until used in the binding assay.
For radioreceptor assays aliquots of the frozen membrane suspension were thawed and diluted tenfold with […] Tris/HCl buffer, pH 7.4. […] The protein concentration in the 1 ml final incubation volume was 800 ug, corresponding to 32 mg of brain tissue (original wet weight). […] After incubation for 90 minutes at room temperature the membrane suspension was rapidly filtered under vacuum through Whatman GF/B glass fiber filters using a Brandel 48 well cell harvester (Brandel, Gaithersburg, Md.). The filters were washed with 3×5 ml ice-cold […] Tris buffer (pH 7.4 at room temperature). The filters were dissolved in 10 ml each of Cytoscint (Westchem Products, San Diego, Calif.) and radioactivity was measured by liquid scintillation spectrometry at a counting efficiency of 35-50%. Saturation data were evaluated by Scatchard analysis using both the EBDA NcPherson, G. A., Computer Programs Biomed.

anxiety behavior of mice [17] = settings: mouse, in vivo, ip, 10 mg/kg
[18] = Example 25, guinea pig brain membrane homogenates, read-out: IC50 binding values

sigma receptor (Cavia porcellus, UniProt Q60492), sequence (Q60492 whole entry): as above

CCCN1CCCC(c2cccc(O)c2)C1 (single isomer, unassigned; (+)) [(+)3-PPP, 3-(3-hydroxyphenyl)-N-(1-propyl)-piperidine, reference compound]
IC50 (sigma receptor [1]): 33 ± 12 nM | effect on [3H]AZ-DTG labeling of the 29 kD polypeptide ([2]; 10 uM): completely blocked

C=CCN1CCC2(C)c3cc(O)ccc3CC1C2C (single isomer, unassigned; (-)) [(-)SKF 10,047, N-allyl-normetazocine, reference compound]
binding to delta, mu and kappa receptors [3]: apparently labeled the mu and kappa receptors but not the sigma receptors | IC50 (sigma receptor [4]; read-out: IC50 binding values): 4000 ± 566 nM | IC50 (sigma receptor [4]; read-out: IC50 vs. [3H]DTG): 4000 nM

CCCN1CCC[C@H](c2cccc(O)c2)C1 [(+)[^3 H]3-PPP, (+)[^3 H]3-(3-hydroxyphenyl)-N-(1-propyl)-piperidine]
Bmax (sigma receptor [5]): 80 pmol/g fresh brain weight | Kd (sigma receptor [5]): 30 nM

CCCN1CCC[C@@H](c2cccc(O)c2)C1 [(-)3-PPP, reference compound]
IC50 (sigma receptor [1]): 235 nM | IC50 (sigma receptor [4]; [18]): 280 ± 21 nM | IC50 (sigma receptor [4]; read-out: IC50 vs. [3H]DTG, Table III, ± SEM, average from 2-4 separate experiments in triplicate): 280 ± 21 nM

Cc1ccccc1NC(=N)NC12CC3CC(CC(C3)C1)C2 [AdTG, N-(Adamantan-1-yl)-N'-(2-methylphenyl)guanidine]
numbers of line crossings and/or rears in the light compartment (vs dark) (anxiety behavior of mice [6]; oral): increased at the expense of those in the dark compartment | proportion of time in light area / percentage of time in black compartment (anxiety behavior of mice [6]; oral): increased significantly the proportion of time the mice spent in the larger, lighted area | anxiolytic activity (anxiety behavior of mice [6]; oral, 1 mg/kg): have anxiolytic activity when orally administered | latency to entering the dark compartment (anxiety behavior of mice [6]; s.c.): increased in a dose-dependent manner | numbers of line crossings and/or rears in the light compartment (vs dark) (anxiety behavior of mice [6]; s.c.): increased at the expense of those in the dark compartment | proportion of time spent in the lighted area (anxiety behavior of mice [6]; s.c.): dose dependently increased the proportion of time the mice spent in the larger, lighted area | sedation: total numbers of rears and line crossings (anxiety behavior of mice [6]; s.c.): did not decrease significantly showing that the drug was not sedative at this level | in vitro [3H]DTG displacement activity (sigma receptor [4]): found to possess the aforesaid in vitro [^3 H]DTG displacement activity | IC50 (sigma receptor [4]; [18]): 7.6 ± 0.3 nM | IC50 (sigma receptor [4]; list of especially preferred compounds, read-out: IC50 (high binding to the sigma receptor)): 7.6 nM | IC50 (sigma receptor [4]; read-out: IC50, [3H]DTG displacement in guinea-pig brain homogenates, most potent, n=6): 2.6 ± 0.6 nM | IC50 (sigma receptor [4]; read-out: IC50 vs [3H]DTG, Table I, guinea pig brain membranes): 3 ± 1 nM | dose giving about the same result, relative to diazepam ([7]; 0.1 mg/kg vs 1 mg/kg diazepam): about the same result at one-tenth the dose of diazepam | time spent in social interaction [7]: significantly increased social interactions

OC(CCCN1CCN(c2ncc(F)cn2)CC1)c1ccc(F)cc1 (stereo not drawn) [BMY 14802]
interaction with D1 subclass / inhibition of [3H]SCH 23390 binding in vitro [8]: does not appear to interact with the D1 subclass of dopamine receptors | binding to the sigma receptor (sigma receptor [9]): binds with relatively high affinity to the sigma receptor | potency of dextrorotatory vs levorotatory enantiomer at inhibiting sigma binding (sigma receptor [9]): 10 times | catalepsy (rats): did not cause catalepsy in rats | inhibition of dopamine-stimulated cAMP production [10]: does not inhibit dopamine-stimulated cAMP production | maximal density of [3H]spiperone-labeled D2 site ([11]; chronic administration (20 days) to rats): did not increase the maximal density | inhibition of [3H]spiperone binding to D2 [11]: does not inhibit the binding of [^3 H]spiperone | binding to adrenergic, muscarinic, cholinergic, or histaminergic sites [12]: does not bind to the adrenergic, muscarinic, cholinergic, or histaminergic sites

O=C1CC2(CCCC2)CC(=O)N1CCCCN1CCN(c2ncccn2)CC1 [Buspirone]
taming of the aggressive response (rhesus monkeys): efficacy in a predictive animal model

N=C(Nc1ccccc1)Nc1ccccc1 [DPG, N,N'-di(phenyl)guanidine]
substitution for cyclazocine [13]: fully substitutable for cyclazocine

Cc1ccccc1NC(=N)Nc1ccccc1C [DTG, N,N'-di-(2-methylphenyl)guanidine]
substitution for cyclazocine [13]: fully substitutable for cyclazocine | activity in [3H]-PCP binding assay (PCP receptor): virtually inactive | anxiolytic activity (anxiety behavior of mice [6]; s.c.): does not exhibit anxiolytic activity | rears, crossings, % time in the black compartment (anxiety behavior of mice [6]; s.c., concentrations tested): did not affect significantly | in vitro [3H]DTG displacement activity (sigma receptor [4]): found to possess the aforesaid in vitro [^3 H]DTG displacement activity

Cc1ccccc1NC(=N)Nc1ccc(N=[N+]=[N-])cc1C [[^3 H]AZ--DTG, [^3 H]-m-azido-1,3-di-o-tolylguanidine]
size of polypeptide selectively labeled ([2]; fluorography of SDS-PAGE gels after UV irradiation): 29 kD | Kd [14]: 28 nM

[3H]c1ccc(NC(=N)Nc2ccc([3H])cc2C)c(C)c1 [[^3 H]DTG, N,N'-di-(4-[^3 H]-2-methylphenyl)-guanidine]
distribution/density of [3H]DTG binding [15]: low density of specific binding diffusely distributed throughout the gray matter; also recorded: heterogeneous distribution of enriched binding in limbic and sensorimotor structures; also recorded: Very dense binding was seen in the choroid plexus; also recorded: very dense binding was found in the subcommissural organ; also recorded: The oculomotor nucleus, and more caudally, the trochlear nucleus were very densely labeled; also recorded: In the hindbrain the locus coeruleus was the most densely labeled nucleus | specific binding, % of total binding (sigma receptor [16]): 90-97% | total binding (sigma receptor [16]; 0.9 nM [3H]DTG): 2700 cpm | nonspecific binding (sigma receptor [16]; 0.9 nM [3H]DTG, 10 uM DTG or 10 uM haloperidol): 50-150 cpm | abolition of specific binding by boiling of membranes (sigma receptor [16]; 100° C. for 10 minutes prior to assay): 90% | reversibility of binding (sigma receptor [16]; after addition of 10 uM unlabeled DTG): fully reversible | binding to sigma receptor sites (words) (sigma receptor [16]): binds specifically and with high affinity to a single class of binding sites; also recorded: bound specifically, saturably, reversibly, and with high affinity | binding to sigma receptor sites (words) (sigma receptor [16]; listed as [^3 H]--DTG): binds reversibly, saturably, selectively and with high affinity | maximum number of binding sites (Bmax) (sigma receptor [16]; original wet weight): 85 pmol/g brain tissue | time to binding equilibrium (sigma receptor [16]; room temperature): 60 to 90 min | specific binding of total [3H]DTG binding (sigma receptor [4]): > 90%

CN1C(=O)CN=C(c2ccccc2)c2cc(Cl)ccc21 [diazepam, reference compound]
sedation: numbers of rears and line crossings (anxiety behavior of mice [17]): decreased significantly showing that the drug was markedly sedative | numbers of line crossings and/or rears in the light compartment (anxiety behavior of mice [6]; mouse, in vivo, ip): increased at the expense of those in the dark compartment | proportion of time in light area / percentage of time in black compartment (anxiety behavior of mice [6]; mouse, in vivo, ip): dose-dependently increased the proportion of time the mice spent in the larger, lighted area | displacement of [3H]DTG (sigma receptor [4]): no significant displacement | time spent in social interaction [7]: significantly increased social interactions
